According to ChEMBL document CHEMBL4834424, “Targeting Chikungunya Virus Replication by Benzoannulene Inhibitors” (J Med Chem, 2021):
pEC50, pIC50: −log10 of the molar value. Converted amounts (≈) assume the structure as drawn.

How the values were obtained:
NHDF = assay: (§1) Cytotoxicity against human NHDF cells assessed as cell viability measured after 24 hrs by Cell Titer Glo luminescent assay; assay type: cell-based; conditions: nhdf, 24 h
Chikungunya virus [1] = assay: (§2) Antiviral activity against CHIKV infected in human NHDF cells assessed as reduction in virus titer in cell supernatant by measuring inhibition of plaque formation using Vero cells at 10 uM pretreated with NHDF cells followed by infected with virus incubated for 24 hrs and measured following infection of supernatants with Vero cells for 48 hrs by plaque based methylene blue dye analysis; assay type: functional; conditions: time 72 hrs
[2] = Metabolic stability in human liver microsomes assessed as half life in presence of NADPH incubated up to 45 mins by LC-MS/MS analysis; assay type: ADME, Microsome
[3] = as §1; assay type: cell-based; conditions: NHDF cells
[4] = Octanol-aqueous buffer distribution coefficient, log D of the compound by LC-MS analysis; assay type: physicochemical
[5] = Metabolic stability in mouse liver microsomes assessed as half life in presence of NADPH incubated up to 45 mins by LC-MS/MS analysis; assay type: ADME, Microsome; parameters: unit not given here; conditions: for half-life: liver microsomes
Chikungunya virus [6] = assay: as §2, with “cells” for “cells at 10 uM”; assay type: functional, organism-based
[7] = Aqueous solubility of the compound; assay type: physicochemical
[8] = target: Dihydroorotate dehydrogenase (quinone), mitochondrial (Homo sapiens, UniProt Q02127)
Sequence of Dihydroorotate dehydrogenase (quinone), mitochondrial (Q02127 whole entry): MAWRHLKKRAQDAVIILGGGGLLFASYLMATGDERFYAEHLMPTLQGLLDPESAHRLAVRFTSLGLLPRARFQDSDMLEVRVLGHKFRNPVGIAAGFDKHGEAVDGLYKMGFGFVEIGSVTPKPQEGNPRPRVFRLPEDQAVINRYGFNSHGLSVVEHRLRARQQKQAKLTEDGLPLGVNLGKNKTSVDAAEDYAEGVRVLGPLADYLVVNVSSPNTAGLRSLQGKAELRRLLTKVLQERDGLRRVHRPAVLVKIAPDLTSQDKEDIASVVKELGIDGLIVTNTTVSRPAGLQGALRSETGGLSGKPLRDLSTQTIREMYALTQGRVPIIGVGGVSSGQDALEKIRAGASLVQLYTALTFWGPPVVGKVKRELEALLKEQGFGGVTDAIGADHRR

Structure (SMILES)	CC50 (NHDF)	log(activity) (Chikungunya virus [1])	half-life [2]	CC50 at 24 h [3]	logD [4]	half-life [5]	pEC50 (Chikungunya virus [6])	solubility ([7]; aqueous, read-out: solubility)	solubility ([7]; buffer)	t1/2 ([5]; microsomes, 0.75 h)	pIC50 [8]
CC(C)(C)c1ccc(C(=O)Nc2cc3c(cc2OCc2ccccn2)CCCCC3)cc1	9.4 µM	<1									
CC(C)(C)c1ccc(NC(=O)c2cc3c(cc2OC(F)F)CCCCC3)cc1		1.4	70 h	> 30 µM	5	660					
CCOc1cc2c(cc1C(=O)Nc1ccc(C(C)(C)C)cc1)CCCCC2		1.5		> 30 µM			5.42				
COc1cc2c(cc1NC(=O)c1ccc(C(C)(C)O)cc1)CCCCC2		1.6	254 h	> 30 µM	4	1140	5.61	8 µM (≈ 2.83 µg/mL)			
COc1nc2c(cc1NC(=O)c1ccc(C(C)(C)C)cc1)CCCC2		6.7		> 30 µM			5.64				
COc1cc2c(cc1NC(=O)c1ccc(C(C)(C)C)cc1)CCCCN2		3.9		> 30 µM			5.48				
CC(C)(C)c1ccc(C(=O)Nc2cc3c(cc2CO)CCCCC3)cc1		<1	64 h	> 30 µM	4	1320		< 1 µM			
COc1cc2c(nc1NC(=O)c1ccc(C(C)(C)C)cc1)CCCC2		1.3		> 30 µM							
COc1cc2c(cc1NC(=O)c1ccc(C(C)(C)C)cc1)CCCCN2C		<1		> 30 µM							
CC(C)(C)c1ccc(C(=O)Nc2cc3c(cc2C(F)(F)F)CCCCC3)cc1		0		> 30 µM							
COc1cc2c(cc1NC(=O)c1ccc(C(C)(C)C)cc1)CCC2		<1		> 30 µM							
COCCOc1cc2c(cc1NC(=O)c1ccc(C(C)(C)C)cc1)CCCCC2		0		> 30 µM							
CC(C)(C)c1ccc(C(=O)Nc2cc3c(cc2OC(F)(F)F)CCCCC3)cc1				> 30 µM	5		5.43		8 µM (≈ 3.24 µg/mL)	127	
COc1cc2c(cc1NC(=O)c1ccc(C(C)(C)C)cc1)CCCC(=O)N2		<1		> 30 µM							
COc1cc2c(cc1NC(=O)c1ccc(C(C)(C)C)cc1)CCCC(=O)N2C(C)C		1.7		> 30 µM			5.29				
CC(C)(C)c1ccc(NC(=O)c2cc3c(cc2O)CCCCC3)cc1		3.3	49 h	> 30 µM	4.2	4680	5.81	< 1 µM			< 4.52
[2H]C([2H])([2H])Oc1cc2c(cc1NC(=O)c1ccc(C(C)(C)C)cc1)CCCCC2		23	31 h	> 30 µM	3		6.00	28 µM (≈ 9.93 µg/mL)			
COc1cc2c(cc1C(=O)Nc1ccc(-c3cc[nH]n3)cc1)CCCCC2		5.9		> 30 µM			5.47				
COc1cc2c(nc1NC(=O)c1ccc(C(C)(C)C)cn1)CCCCC2		4.05		> 30 µM			5.54				< 4.52
CCOc1cc2c(cc1NC(=O)c1ccc(C(C)(C)C)cc1)CCC2		1		> 30 µM			5.21				
CC(C)(C)c1ccc(C(=O)Nc2cc3c(cc2C#N)CCCCC3)cc1		1.8	76 h	> 30 µM	5	1860	5.36	< 1 µM			
COc1cc2c(cc1NC(=O)c1ccc(C3(C(F)(F)F)CC3)cc1)CCCCC2		1	67 h	> 30 µM	6	1320	5.89	< 1 µM			
CC(=O)Oc1cc2c(cc1NC(=O)c1ccc(C(C)(C)C)cc1)CCCCC2		52	7 h	> 30 µM	5		5.55	< 1 µM			
CC(C)(C)c1ccc(C(=O)Nc2ccc3c(c2)CCCCC3)cc1		3.9	33 h	> 30 µM	4	1380	6.15		35 µM (≈ 11.3 µg/mL)		
CCc1cc2c(cc1NC(=O)c1ccc(C(C)(C)C)cc1)CCCCC2		4.9	37 h	> 30 µM	5	660	5.77	< 1 µM			< 4.52
